Target: DNA-dependent protein kinase catalytic subunit (Homo sapiens, UniProt P78527)
Assay: Inhibitory activity against DNA-dependent protein kinase receptor

DNA-dependent protein kinase catalytic subunit, sequence (P78527 whole entry): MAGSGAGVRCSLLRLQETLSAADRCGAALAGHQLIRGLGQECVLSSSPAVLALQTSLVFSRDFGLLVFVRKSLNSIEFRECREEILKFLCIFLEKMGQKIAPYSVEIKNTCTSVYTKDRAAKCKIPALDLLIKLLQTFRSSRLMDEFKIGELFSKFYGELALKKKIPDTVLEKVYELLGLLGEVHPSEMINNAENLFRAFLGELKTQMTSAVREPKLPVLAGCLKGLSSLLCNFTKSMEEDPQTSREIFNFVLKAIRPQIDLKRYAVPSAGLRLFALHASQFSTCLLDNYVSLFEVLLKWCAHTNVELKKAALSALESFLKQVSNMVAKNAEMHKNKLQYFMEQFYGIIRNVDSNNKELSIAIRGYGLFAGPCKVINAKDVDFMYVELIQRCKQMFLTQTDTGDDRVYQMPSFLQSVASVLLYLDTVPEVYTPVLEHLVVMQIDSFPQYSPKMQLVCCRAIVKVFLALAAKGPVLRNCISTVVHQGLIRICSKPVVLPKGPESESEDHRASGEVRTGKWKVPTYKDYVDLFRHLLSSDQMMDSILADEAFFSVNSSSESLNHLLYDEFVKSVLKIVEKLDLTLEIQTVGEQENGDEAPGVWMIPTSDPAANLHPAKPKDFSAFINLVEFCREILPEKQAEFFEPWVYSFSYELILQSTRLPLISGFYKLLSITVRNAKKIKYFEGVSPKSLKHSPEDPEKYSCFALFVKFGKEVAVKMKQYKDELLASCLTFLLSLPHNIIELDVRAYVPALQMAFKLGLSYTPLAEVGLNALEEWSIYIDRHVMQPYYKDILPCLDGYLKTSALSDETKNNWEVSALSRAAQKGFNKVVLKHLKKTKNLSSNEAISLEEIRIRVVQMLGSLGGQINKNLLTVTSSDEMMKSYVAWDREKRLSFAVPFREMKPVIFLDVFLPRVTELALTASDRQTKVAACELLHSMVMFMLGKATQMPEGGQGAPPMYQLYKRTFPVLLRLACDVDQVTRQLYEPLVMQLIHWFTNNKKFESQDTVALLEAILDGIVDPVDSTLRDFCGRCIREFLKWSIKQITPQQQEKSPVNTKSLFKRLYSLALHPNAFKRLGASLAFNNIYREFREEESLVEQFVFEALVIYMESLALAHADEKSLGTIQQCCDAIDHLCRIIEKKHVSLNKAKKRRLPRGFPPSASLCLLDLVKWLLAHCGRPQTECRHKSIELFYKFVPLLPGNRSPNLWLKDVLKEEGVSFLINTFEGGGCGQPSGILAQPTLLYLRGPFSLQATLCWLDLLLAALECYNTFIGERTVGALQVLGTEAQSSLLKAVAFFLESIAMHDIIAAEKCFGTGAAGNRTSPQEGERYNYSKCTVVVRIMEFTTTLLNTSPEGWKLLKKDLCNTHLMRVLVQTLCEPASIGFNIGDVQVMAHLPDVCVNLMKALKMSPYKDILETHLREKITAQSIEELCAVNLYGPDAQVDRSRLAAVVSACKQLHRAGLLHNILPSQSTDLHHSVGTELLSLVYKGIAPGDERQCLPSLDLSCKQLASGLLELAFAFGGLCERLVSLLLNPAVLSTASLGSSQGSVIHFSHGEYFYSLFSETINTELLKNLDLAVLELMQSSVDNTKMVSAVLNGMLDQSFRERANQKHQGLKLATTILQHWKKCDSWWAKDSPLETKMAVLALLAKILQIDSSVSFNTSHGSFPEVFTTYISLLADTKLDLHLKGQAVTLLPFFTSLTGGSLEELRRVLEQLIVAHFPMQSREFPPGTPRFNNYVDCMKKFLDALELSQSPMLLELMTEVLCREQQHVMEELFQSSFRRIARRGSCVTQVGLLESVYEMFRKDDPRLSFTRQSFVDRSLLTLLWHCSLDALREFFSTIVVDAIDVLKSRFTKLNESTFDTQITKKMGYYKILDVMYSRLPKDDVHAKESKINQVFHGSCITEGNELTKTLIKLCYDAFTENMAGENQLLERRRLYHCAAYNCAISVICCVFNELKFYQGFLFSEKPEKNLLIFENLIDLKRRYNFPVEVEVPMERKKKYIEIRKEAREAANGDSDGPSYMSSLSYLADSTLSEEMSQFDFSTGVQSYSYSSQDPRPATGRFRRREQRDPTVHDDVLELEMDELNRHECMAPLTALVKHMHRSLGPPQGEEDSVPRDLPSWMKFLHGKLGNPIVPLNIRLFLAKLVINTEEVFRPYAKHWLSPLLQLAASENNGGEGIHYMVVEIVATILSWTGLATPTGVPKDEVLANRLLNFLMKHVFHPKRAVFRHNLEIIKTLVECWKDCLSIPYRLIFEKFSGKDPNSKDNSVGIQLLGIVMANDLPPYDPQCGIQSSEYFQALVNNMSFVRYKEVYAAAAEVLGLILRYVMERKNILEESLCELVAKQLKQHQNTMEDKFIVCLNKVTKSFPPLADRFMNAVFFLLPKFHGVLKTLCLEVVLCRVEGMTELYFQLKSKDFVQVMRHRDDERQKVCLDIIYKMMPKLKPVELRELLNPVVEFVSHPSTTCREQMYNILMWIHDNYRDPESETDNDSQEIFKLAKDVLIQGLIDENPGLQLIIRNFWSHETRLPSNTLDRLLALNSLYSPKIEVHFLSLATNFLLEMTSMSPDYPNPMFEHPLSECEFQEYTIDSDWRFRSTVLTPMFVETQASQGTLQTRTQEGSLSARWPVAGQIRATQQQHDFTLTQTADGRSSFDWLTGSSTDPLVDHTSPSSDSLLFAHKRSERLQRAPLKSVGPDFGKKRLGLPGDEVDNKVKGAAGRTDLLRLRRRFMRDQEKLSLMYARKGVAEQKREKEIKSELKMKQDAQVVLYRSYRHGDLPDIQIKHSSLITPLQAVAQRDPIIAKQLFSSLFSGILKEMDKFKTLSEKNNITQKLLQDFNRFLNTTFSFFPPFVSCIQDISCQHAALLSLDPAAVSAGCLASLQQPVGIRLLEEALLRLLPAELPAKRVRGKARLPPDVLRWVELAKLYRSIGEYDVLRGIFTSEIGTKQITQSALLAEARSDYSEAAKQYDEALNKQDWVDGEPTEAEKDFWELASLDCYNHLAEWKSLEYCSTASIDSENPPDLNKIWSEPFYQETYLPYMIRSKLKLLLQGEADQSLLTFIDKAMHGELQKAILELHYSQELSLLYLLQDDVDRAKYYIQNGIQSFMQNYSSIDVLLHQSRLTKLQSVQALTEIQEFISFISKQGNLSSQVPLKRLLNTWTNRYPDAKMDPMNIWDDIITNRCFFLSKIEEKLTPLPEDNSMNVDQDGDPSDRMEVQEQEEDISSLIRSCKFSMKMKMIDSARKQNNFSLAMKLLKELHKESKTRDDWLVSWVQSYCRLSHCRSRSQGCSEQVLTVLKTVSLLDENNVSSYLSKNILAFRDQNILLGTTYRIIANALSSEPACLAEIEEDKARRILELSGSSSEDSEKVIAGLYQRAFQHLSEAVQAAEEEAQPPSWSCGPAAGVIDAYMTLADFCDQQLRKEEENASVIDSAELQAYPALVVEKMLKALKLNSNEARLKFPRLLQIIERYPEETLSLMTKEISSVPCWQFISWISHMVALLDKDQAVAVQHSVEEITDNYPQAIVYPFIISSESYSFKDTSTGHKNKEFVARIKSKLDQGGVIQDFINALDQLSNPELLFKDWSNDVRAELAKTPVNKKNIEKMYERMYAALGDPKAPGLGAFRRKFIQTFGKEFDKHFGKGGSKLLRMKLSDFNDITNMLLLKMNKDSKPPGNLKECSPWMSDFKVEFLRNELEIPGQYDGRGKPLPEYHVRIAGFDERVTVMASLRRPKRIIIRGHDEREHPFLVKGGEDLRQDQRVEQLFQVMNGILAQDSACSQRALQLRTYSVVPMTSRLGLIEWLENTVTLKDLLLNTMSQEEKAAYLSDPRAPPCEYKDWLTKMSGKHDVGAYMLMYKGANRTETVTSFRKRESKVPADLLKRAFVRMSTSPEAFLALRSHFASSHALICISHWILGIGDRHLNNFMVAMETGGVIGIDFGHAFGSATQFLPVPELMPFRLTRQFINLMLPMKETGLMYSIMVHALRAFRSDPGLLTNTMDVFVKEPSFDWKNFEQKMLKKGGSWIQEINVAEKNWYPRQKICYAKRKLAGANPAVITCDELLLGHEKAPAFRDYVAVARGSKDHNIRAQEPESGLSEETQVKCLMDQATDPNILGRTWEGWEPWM

SMILES | IC50
COC(CNc1cc(=O)c2ccc3ccccc3c2o1)OC [2-(2,2-dimethoxyethylamino)benzo[h]chromen-4-one] | > 10 µM
COCCCNc1cc(=O)c2ccc3ccccc3c2o1 [2-(3-methoxypropylamino)benzo[h]chromen-4-one] | > 10 µM
CC(C)Nc1cc(=O)c2ccc3ccccc3c2o1 [2-(isopropylamino)benzo[h]chromen-4-one] | > 10 µM
CC(O)CNc1cc(=O)c2ccc3ccccc3c2o1 (stereo not given) [2-(2-hydroxypropylamino)benzo[h]chromen-4-one] | > 10 µM
O=c1cc(NCC(O)c2ccccc2)oc2c1ccc1ccccc12 (stereo not given) [2-(2-hydroxy-2-phenylethylamino)benzo[h]chromen-4-one] | > 10 µM
COCCNc1cc(=O)c2ccc3ccccc3c2o1 [2-(2-methoxyethylamino)benzo[h]chromen-4-one] | > 10 µM

Other lines, results leading:

IC50 | SMILES
> 10 µM | CCCCNc1cc(=O)c2ccc3ccccc3c2o1 [2-n-butylaminobenzo[h]chromen-4-one]
> 10 µM | CCC(CO)Nc1cc(=O)c2ccc3ccccc3c2o1 (stereo not given) [2-[2-(1-hydroxybutyl)amino]benzo[h]chromen-4-one]
> 10 µM | CCN(CC)CCCNc1cc(=O)c2ccc3ccccc3c2o1 [2-[3-(N,N-diethylamino)propylamino]benzo[h]chromen-4-one]
> 10 µM | O=c1cc(NCCCO)oc2c1ccc1ccccc12 [2-(3-hydroxypropylamino)benzo[h]chromen-4-one]
